One block for each molecule: values may come before it. Activity calls are given as the source filed them.
Experiments:
[1] = non-specific 3'UTR reporter inhibition in Clone20-Shn3RL – cell-based, Renilla luciferase, cherry-picked, counter-screen for Shn3 inhibitor project, dose response (AID 624133); type: functional
[2] = Trypanosoma cruzi growth suppression in host cells – NIH3T3 host cells, beta-gal luminescence, confirmation (AID 2044); type: functional, cell-based;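 further: intracellular parasites grown in NIH/3T3 mouse fibroblasts as host cells; luminescent beta-galactosidase reporter signal from transgenic T. cruzi replicating inside host cells; inhibitors lower the luminescence signal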
[3] = target: Protein Wnt-3a (Mus musculus, UniProt P27467); assay: antagonism of Wnt3a pathway luciferase reporter – Wnt-LIGHT cells, luminescence, selectivity assay for Gli-SUFU antagonist project, dose response (AID 651570); type: functional; conditions: read-out: IC50_Mean;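 further: Wnt-LIGHT reporter cells stimulated with conditioned medium from Wnt3a-producing cells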
[4] = reduction of Shn3 3'UTR-driven luciferase in osteoblasts – cell-based, Clone20 osteoblasts, firefly luciferase, cherry-picked, dose response (AID 624132); type: functional;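 further: firefly luciferase luminescence from reporter carrying the Shn3 3'UTR in osteoblasts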
[5] = loss of viability in HepG2 cells – cell-based, CellTiter-Glo, cherry-picked, cytotoxicity control for Shn3 inhibitor project, dose response (AID 624134); type: functional
[6] = NIH3T3 cell viability loss – ATP luminescence, mouse fibroblasts, counter-screen, dose response (AID 2010); type: functional, cell-based;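 further: cells exposed to compound for about 90 hours before reading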
[7] = intracellular Trypanosoma cruzi inhibitors in host cells – cell-based, plate reader, cherry-pick samples, set 3, dose response (AID 651818); type: functional;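 further: compounds incubated with infected cells for about four days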
[8] = target: Troponin, cardiac muscle (Homo sapiens, UniProt P19429+P45379+P63316); assay: Fluorescence-based biochemical high throughput dose response assay for activators of the calcium sensitivity of cardiac Regulated Thin Filaments (RTF). [Related pubchem assays (depositor defined):AID493008, AID493018, AID504382, AID504383]; type: protein-complex assay
[9] = target: T1, Cysteine protease ATG4B (Homo sapiens, UniProt Q9Y4P1); type: functional;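 further: Fluorescence-based dose-response confirmation assay measuring inhibition of ATG4B activity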
T1 sequence (Q9Y4P1 whole entry): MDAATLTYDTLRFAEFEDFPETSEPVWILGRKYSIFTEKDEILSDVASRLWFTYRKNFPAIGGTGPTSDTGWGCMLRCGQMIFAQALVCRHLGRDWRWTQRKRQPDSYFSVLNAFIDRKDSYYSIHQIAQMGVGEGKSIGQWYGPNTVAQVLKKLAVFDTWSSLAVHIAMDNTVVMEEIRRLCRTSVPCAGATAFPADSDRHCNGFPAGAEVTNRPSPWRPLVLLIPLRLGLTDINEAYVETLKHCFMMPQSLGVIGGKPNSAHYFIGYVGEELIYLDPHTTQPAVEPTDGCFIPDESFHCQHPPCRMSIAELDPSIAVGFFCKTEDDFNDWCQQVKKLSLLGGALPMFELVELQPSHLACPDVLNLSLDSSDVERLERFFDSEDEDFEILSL

[10] = target: Phospholipase A2 (Homo sapiens, UniProt P04054); type: functional;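 further: confirmatory dose-response counterscreen on phospholipase A2, testing hits that came from an ultra-high-throughput screen for ATG4B inhibitors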
[11] = target: T2, Heat shock factor protein 1 (Mus musculus, UniProt P38532); assay: enhancement of HSF1-driven luciferase signal – cell-based, NIH3T3, luminescence, dose retest, confirmation (AID 435004); type: functional;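 further: stress induced by proteasome inhibitor MG132 added 30 min after compound; luciferase reporter driven by HSF1 response element in NIH3T3 cells; actives raise luminescence as potentiators of the MG132 stress response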
T2 sequence (P38532 whole entry): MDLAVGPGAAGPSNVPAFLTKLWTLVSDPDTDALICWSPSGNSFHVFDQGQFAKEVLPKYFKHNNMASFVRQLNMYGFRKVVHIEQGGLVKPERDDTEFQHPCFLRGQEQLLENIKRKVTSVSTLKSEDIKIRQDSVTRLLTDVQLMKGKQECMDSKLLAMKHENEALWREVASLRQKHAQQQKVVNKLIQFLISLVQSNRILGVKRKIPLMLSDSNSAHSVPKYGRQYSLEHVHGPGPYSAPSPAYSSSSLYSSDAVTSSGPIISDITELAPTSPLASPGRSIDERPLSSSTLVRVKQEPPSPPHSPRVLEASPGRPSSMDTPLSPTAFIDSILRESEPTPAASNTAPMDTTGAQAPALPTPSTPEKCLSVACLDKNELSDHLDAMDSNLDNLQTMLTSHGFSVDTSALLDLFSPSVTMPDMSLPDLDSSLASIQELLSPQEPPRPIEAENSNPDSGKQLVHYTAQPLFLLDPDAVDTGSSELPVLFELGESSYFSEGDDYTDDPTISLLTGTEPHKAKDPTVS

[12] = target: Glyceraldehyde-3-phosphate dehydrogenase (Homo sapiens, UniProt P04406)
[13] = target: T3, Alkaline phosphatase, tissue-nonspecific isozyme (Homo sapiens, UniProt P05186); assay: potency against alkaline phosphatase TNAP – biochemical, luminescent, dose response, SAR follow-up (AID 1056)
T3 sequence (P05186 whole entry): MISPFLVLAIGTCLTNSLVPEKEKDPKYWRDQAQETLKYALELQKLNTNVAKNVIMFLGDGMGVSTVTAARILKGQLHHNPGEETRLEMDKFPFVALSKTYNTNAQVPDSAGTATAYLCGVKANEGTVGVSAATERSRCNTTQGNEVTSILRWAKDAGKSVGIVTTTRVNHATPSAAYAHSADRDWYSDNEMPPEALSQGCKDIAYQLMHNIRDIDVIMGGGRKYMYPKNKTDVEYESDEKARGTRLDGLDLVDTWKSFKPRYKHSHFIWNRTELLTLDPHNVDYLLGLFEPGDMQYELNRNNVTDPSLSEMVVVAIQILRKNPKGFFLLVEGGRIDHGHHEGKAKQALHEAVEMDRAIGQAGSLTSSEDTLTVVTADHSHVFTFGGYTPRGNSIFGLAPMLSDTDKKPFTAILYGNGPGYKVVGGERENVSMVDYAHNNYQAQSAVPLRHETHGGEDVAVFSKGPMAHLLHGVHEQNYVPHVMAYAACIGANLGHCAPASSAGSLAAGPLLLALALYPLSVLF

[14] = tested on: HEK293; assay: EBV LMP1 TES2 canonical NF-kB signalling blockers – cell-based, HEK293, luciferase, cherry-pick, dose response (AID 588343); type: functional; conditions: Homo sapiens
[15] = viability of uninfected HEp-2 cells – cell-based, HTS, cytotoxicity control for RSV inhibitor project, dose response (AID 2410); type: functional; conditions: human respiratory syncytial virus
[16] = cells
[17] = target: Cytochrome P450 3A4 (Homo sapiens, UniProt P08684);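 further: CYP3A4 tested as one member of a cytochrome P450 panel screen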
[18] = target: FAD-linked sulfhydryl oxidase ALR (Homo sapiens, UniProt P55789); assay: ALR-catalysed DTT oxidation blockers – biochemical, H2O2 detection, luminescence, cherry-pick, dose response (AID 493248)
Chain of FAD-linked sulfhydryl oxidase ALR (P55789 whole entry): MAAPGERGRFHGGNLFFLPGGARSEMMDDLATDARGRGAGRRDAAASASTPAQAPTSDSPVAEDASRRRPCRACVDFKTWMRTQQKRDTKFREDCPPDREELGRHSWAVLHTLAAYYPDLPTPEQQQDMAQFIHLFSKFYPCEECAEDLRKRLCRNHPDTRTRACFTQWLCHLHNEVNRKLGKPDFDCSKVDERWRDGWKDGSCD

Chain of Protein Wnt-3a (P27467 whole entry): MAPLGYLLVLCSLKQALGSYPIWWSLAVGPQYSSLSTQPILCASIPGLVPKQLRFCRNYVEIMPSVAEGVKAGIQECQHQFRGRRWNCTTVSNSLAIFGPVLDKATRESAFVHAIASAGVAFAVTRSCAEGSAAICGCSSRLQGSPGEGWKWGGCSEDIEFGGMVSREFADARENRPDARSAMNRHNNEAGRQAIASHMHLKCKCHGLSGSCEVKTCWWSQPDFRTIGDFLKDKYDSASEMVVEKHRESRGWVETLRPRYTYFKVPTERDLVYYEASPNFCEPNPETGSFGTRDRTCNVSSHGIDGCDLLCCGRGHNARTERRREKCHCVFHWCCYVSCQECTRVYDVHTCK
Chain of Phospholipase A2 (P04054 whole entry): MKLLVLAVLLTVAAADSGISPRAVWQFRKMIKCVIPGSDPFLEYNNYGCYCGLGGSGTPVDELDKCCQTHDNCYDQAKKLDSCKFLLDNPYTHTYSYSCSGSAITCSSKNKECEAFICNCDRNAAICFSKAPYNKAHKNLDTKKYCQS
Chain of Cytochrome P450 3A4 (P08684 whole entry): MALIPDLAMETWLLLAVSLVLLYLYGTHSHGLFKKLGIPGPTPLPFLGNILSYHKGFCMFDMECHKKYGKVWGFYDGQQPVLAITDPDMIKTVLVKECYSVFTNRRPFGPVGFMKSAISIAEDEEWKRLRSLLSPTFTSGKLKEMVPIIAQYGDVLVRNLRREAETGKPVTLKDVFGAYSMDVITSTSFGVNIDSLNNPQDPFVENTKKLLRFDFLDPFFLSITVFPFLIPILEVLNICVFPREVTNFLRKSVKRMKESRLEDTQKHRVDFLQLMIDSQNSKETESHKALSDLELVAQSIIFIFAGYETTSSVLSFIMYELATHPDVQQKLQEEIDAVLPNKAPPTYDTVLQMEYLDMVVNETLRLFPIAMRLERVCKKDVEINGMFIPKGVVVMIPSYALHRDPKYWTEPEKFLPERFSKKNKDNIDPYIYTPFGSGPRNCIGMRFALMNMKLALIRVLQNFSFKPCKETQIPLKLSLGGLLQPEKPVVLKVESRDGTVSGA
Chain of Glyceraldehyde-3-phosphate dehydrogenase (P04406 whole entry): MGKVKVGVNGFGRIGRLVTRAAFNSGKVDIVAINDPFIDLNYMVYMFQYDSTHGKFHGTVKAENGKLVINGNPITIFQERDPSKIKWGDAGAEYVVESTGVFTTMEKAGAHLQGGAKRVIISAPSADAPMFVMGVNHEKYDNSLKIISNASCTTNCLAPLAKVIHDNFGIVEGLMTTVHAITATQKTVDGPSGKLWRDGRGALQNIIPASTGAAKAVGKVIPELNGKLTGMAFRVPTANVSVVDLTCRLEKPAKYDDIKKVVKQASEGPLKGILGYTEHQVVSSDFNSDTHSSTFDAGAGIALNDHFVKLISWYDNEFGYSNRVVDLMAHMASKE

Structure (SMILES): CC(C)(C)c1ccc(CN2C3=NCCCN3c3ccccc32)cc1
AC50 [1]: 0.978 µM (active)
EC50 [2]: 0.387 µM (active)
IC50 [3]: 2.94 µM (active)
AC50 [4]: 0.836 µM (active)
AC50 [5]: 21.8 µM (active)
EC50 [6]: > 60 µM (not active)

Structure (SMILES): C[C@@H]1CN([C@@H](C)CO)C(=O)c2cc(NC(=O)Nc3ccc(C(F)(F)F)cc3)ccc2O[C@@H]1CN(C)Cc1ccc(Cl)c(Cl)c1
AC50 [7]: 3.38 µM (active)

Structure (SMILES): COC(=O)C(C)N(C(=O)c1ccc(C(=O)c2ccccc2)cc1)c1c(C)cccc1C (stereo not given)
IC50 [9]: 9.78 µM (active)
IC50 [10]: 8.13 µM (active)
EC50 [11]: > 260 µM (inactive)

Structure (SMILES): Cc1ccsc1-c1nc(CSCC(=O)N2CCN(c3ccccc3)CC2)c(C)o1
AC50 [14]: 225 µM (active)

Structure (SMILES): COc1ccc2cc(-c3cc(C(=O)O)c4ccccc4n3)ccc2c1
AC50 [14]: 1.05 µM (active)
CC50 [15]: 22.5 µM (active)
IC50 [16]: 40.9 µM (active)

Structure (SMILES): C[C@H]1CN([C@@H](C)CO)C(=O)c2cccc(NC(=O)c3nc4ccccc4s3)c2O[C@@H]1CN(C)S(=O)(=O)c1ccc(Cl)cc1
AC50 [7]: 1.8 µM (active)

The remaining lines, values ahead:

IC50 [3]: 1.7 µM (active)
Structure (SMILES): COc1cccc(/C=C/c2ccncc2)c1OC

EC50 [8]: > 71.5 µM (inactive)
Structure (SMILES): Cn1nc(NC(=O)C2CCC2C(=O)O)c2c(F)cccc21 (stereo not given)

EC50 [8]: > 71.5 µM (inactive)
Structure (SMILES): COc1c(O)cccc1-c1nnn(CCC(=O)OCC(=O)c2ccccc2)n1

IC50 [9]: 8.65 µM (active)
IC50 [10]: 2.83 µM (active)
Structure (SMILES): Cc1ccc(C(=O)O/N=C2\CCCc3ccccc32)cc1

IC50 [12]: > 100 µM (not active)
IC50 [13]: > 100 µM (inactive)
Structure (SMILES): COc1ccc(C)cc1S(=O)(=O)Nc1ccc2ccccc2c1

AC50 [17]: inconclusive
Structure (SMILES): O=C(c1ccco1)N1CCC2(CC1)CCN(c1ccc(-c3ccccc3)cc1)CC2

EC50 [8]: 6.01 µM (active)
AC50 [18]: 2.74 µM (active)
Structure (SMILES): CCN(CC)c1ccc(/C=C2\SC(=N)NC2=O)cc1

Reference: ChEMBL document CHEMBL1201862, “PubChem BioAssay data set” (2004)
